For 42 molecules, melting point and IC50 results are on record in US8273773B2 (priority 2008, dated 2012).

Read-outs that look alike come from different tables or passages of the source.

Series [1] has as its target T1, HCV polymerase (NS5B570n-Con1) (Hepatitis C virus genotype 1b, UniProt Q9WMX2).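 Further: recombinant His-tagged enzyme from E. coli, radiolabeled nucleotide incorporation into acid-insoluble RNA read by scintillation after filtration, no-enzyme background subtracted, activity relative to positive control.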
T1 construct: contains a 21 amino acid deletion at the C-terminus relative to the full-length HCV polymerase; 6-histidine (N); made in house; host or cells: E. coli strain BL21(DE) pLysS (pET17b)
The series can be described thus: biochemical. Further details: species or system HCV Con1 strain.

Where [2] appears, read: IC50 HCV NS5B RNA Polymerase Assay, values without asterisk, 20 nM NS5B570n-Con1 enzyme, 20 nM cIRES RNA template.
[3] abbreviates: IC50 HCV NS5B RNA Polymerase Assay (values with asterisk), values with asterisk: cIRES RNA template, 3 nM NS5B570n-Con1.

`COc1c(Cc2ccccc2)cc(-c2ccc[nH]c2=O)cc1C(C)(C)C` [I-48]: the melting point lay within 202.6 to 204.3 °C. This molecule also returned an IC50 in series [1] (setting [2]) of 0.528 µM. The like results for `CC(C)(C)c1cc(CCc2ccc(NS(C)(=O)=O)cc2)c(O)c(-c2ccc[nH]c2=O)c1` [I-51, N-(4-{2-[5-tert-Butyl-2-hydroxy-3-(2-oxo-1,2-dihydro-pyridin-3-yl)-phenyl]-ethyl}-phenyl)-methanesulfonamide] were, in that order, 96.4 to 135.6 °C and 0.01 µM. In turn, `COc1c(C(=O)NC2CCCCC2)cc(-c2ccc[nH]c2=O)cc1C(C)(C)C` [I-101] registered a melting point of 136 to 138 °C. In series [1] (setting [2]), this molecule yielded an IC50 of 0.753 µM.

Regarding `COc1c(NC(=O)c2ccc(N)cc2)cc(-c2ccc[nH]c2=O)cc1C(C)(C)C` [I-72], the melting point was 190 to 193 °C. For the same molecule, the IC50 in series [1] (setting [2]) was determined as 0.034 µM.

For `COc1c(CCc2ccc(NS(C)(=O)=O)cc2)cc(-c2cc(F)c[nH]c2=O)cc1C(C)(C)C` [I-67], the melting point is 125 to 130 °C. In addition, in series [1] (setting [2]), it took 0.01 µM to reach half-maximal inhibition (IC50).

Take `COc1c(C(=O)c2ccc(O)cc2)cc(-c2ccc[nH]c2=O)cc1C(C)(C)C` [I-55]: the melting point fell in the range of 185 to 187 °C. The half-maximal inhibitory concentration (IC50) in series [1] (setting [2]) amounted to 0.059 µM.

In turn, `CC(C)(C)c1cc(/C=C/c2ccc(NS(C)(=O)=O)cc2)cc(-c2ccc[nH]c2=O)c1` [I-141, N-(4-{(E)-2-[3-tert-Butyl-5-(2-oxo-1,2-dihydro-pyridin-3-yl)-phenyl]-vinyl}-phenyl)-methanesulfonamide] registered a melting point of 260 to 262 °C. Further, in series [1] (setting [2]), half-maximal inhibition (IC50) was put at 0.026 µM. In turn, `CCC(C)(C)c1cc(Br)c(O)c(-c2ccc[nH]c2=O)c1` [I-9] yielded a melting point of 257.2 to 257.7 °C. Further, in series [1] (setting [2]), the IC50 was determined as 3.1 µM. `COc1c(C(=O)NC2CC2)cc(-c2ccc[nH]c2=O)cc1C(C)(C)C` [I-19] displayed a melting point of 223 to 224 °C. Besides, in series [1] (setting [2]), the IC50 was 1.62 µM. The like results for `COc1c(NC(=O)c2ccc(N)cc2Cl)cc(-c2ccc[nH]c2=O)cc1C(C)(C)C` [I-25] were, in that order, 226 to 228 °C and 0.031 µM. The like results for `COc1c(CCc2ccc(NS(C)(=O)=O)cc2F)cc(-c2ccc[nH]c2=O)cc1C(C)(C)C` [I-102, N-(4-{2-[3-tert-Butyl-2-methoxy-5-(2-oxo-1,2-dihydro-pyridin-3-yl)-phenyl]-ethyl}-3-fluoro-phenyl)-methanesulfonamide] were, in that order, 120 to 122 °C and 0.008 µM. For `COc1c(CCc2ccc(NS(C)(=O)=O)c(C)c2)cc(-c2ccc[nH]c2=O)cc1C(C)(C)C` [I-110], in that order: 114 to 116 °C and 0.016 µM. With `COc1c(/C=C/c2ccc(NS(C)(=O)=O)cn2)cc(-c2ccc[nH]c2=O)cc1C(C)(C)C`, the melting point is 293 to 295 °C. For the molecule `COc1c(NC(=O)c2ccccc2)cc(-c2ccc[nH]c2=O)cc1C(C)(C)C` [I-58], the melting point is 212 to 216 °C. Moreover, half-maximal inhibition in series [1] (setting [2]) (IC50) was put at 0.034 µM. Turning to `COc1c(/C=C/c2ccc(NS(C)(=O)=O)cc2)cc(-c2cc(F)cn(COP(=O)(O)O)c2=O)cc1C(C)(C)C`, the melting point was in the range of 175 to 178 °C. On the same count and under the same terms, in the case of `CS(=O)(=O)Nc1ccc(/C=C/c2cc(-c3ccc[nH]c3=O)cc(C3(CO)CC3)c2)cc1` it was 148 to 150 °C.

Turning to `COc1c(/C=C/c2ccc(NS(C)(=O)=O)cc2)cc(-c2cc(F)cn(COC(=O)[C@@H](N)C(C)C)c2=O)cc1C(C)(C)C`, the melting point was in the range of 188 to 190 °C.

`COc1c(NC(=O)c2ccc(N)cn2)cc(-c2ccc[nH]c2=O)cc1C(C)(C)C` [I-283] yielded an IC50 in series [1] (setting [2]) of 0.009 µM.

Take `COc1c(C(=O)NCCCN2CCCC2=O)cc(-c2ccc[nH]c2=O)cc1C(C)(C)C` [I-44]: in series [1] (setting [2]), the IC50 was 1.2 µM. `COc1c(/C=C/c2ccc(NS(=O)(=O)CCN3CCOCC3)cc2)cc(-c2cc(F)c[nH]c2=O)cc1C(C)(C)C` [I-233] showed an IC50 in series [1] (setting [3]) of 0.001 µM. For the molecule `COc1c(/C=C/c2ccc(N)nc2)cc(-c2ccc[nH]c2=O)cc1C(C)(C)C` [I-171], in series [1] (setting [2]), the midpoint of inhibition, the IC50, lay at 0.004 µM. The same measure, in the same setting: the same measure for `COc1c(CC(C)(CO)c2ccc(NS(C)(=O)=O)cc2)cc(-c2ccc[nH]c2=O)cc1C(C)(C)C` (stereo not shown) [I-198, N-(4-{2-[3-tert-Butyl-2-methoxy-5-(2-oxo-1,2-dihydro-pyridin-3-yl)-phenyl]-1-hydroxymethyl-1-methyl-ethyl}-phenyl)-methanesulfonamide]: 0.019 µM; for `Cc1cc(-c2ccc(CO)[nH]c2=O)cc(C(C)(C)C)c1` [I-12]: 0.892 µM.

The molecule `COc1c(NC(=O)c2ccc(NCC(F)(F)F)c(F)c2)cc(-c2ccc[nH]c2=O)cc1C(C)(C)C` [I-251, N-[3-tert-Butyl-2-methoxy-5-(2-oxo-1,2-dihydro-pyridin-3-yl)-phenyl]-3-fluoro-4-(2,2,2-trifluoro-ethylamino)-benzamide] had a half-inhibitory concentration (IC50) in series [1] (setting [3]) of 0.002 µM.

`COc1c(/C=C/c2ccc(NS(C)(=O)=O)cc2)cc(-c2cc(F)c[nH]c2=O)cc1C1(C(F)F)CC1` [I-269, N-(4-{(E)-2-[3-(1-Difluoromethyl-cyclopropyl)-5-(5-fluoro-2-oxo-1,2-dihydro-pyridin-3-yl)-2-methoxy-phenyl]-vinyl}-phenyl)-methanesulfonamide] returned a 50% inhibitory concentration (IC50) in series [1] (setting [3]) of 0.003 µM. Consider `COc1c(/C=C/c2ccc(NS(C)(=O)=O)cc2F)cc(-c2cc(F)c[nH]c2=O)cc1C(C)(C)C` [I-236, N-(4-{(E)-2-[3-tert-Butyl-5-(5-fluoro-2-oxo-1,2-dihydro-pyridin-3-yl)-2-methoxy-phenyl]-vinyl}-3-fluoro-phenyl)-methanesulfonamide], for which the IC50 in series [1] (setting [3]) worked out at 0.001 µM. Still for that read-out and setting: in the case of `COc1c(/C=C/c2ccc(NS(=O)(=O)CCN3CCCC3)cc2)cc(-c2cc(F)c[nH]c2=O)cc1C(C)(C)C` [I-232, 2-Pyrrolidin-1-yl-ethanesulfonic acid (4-{(E)-2-[3-tert-butyl-5-(5-fluoro-2-oxo-1,2-dihydro-pyridin-3-yl)-2-methoxy-phenyl]-vinyl}-phenyl)-amide] it was 0.001 µM. In series [1] (setting [2]), `CCc1ccc(-c2cc(C(C)(C)C)ccc2OC)c(=O)[nH]1` [I-105, 3-(5-tert-Butyl-2-methoxy-phenyl)-6-ethyl-1H-pyridin-2-one] returned an IC50 of 6.35 µM. As to `COc1c(/C=C/c2ccc(NS(C)(=O)=O)cc2COCCC(C)(C)O)cc(-c2cc(F)c[nH]c2=O)cc1C(C)(C)C` [I-219, N-[4-{(E)-2-[3-tert-Butyl-5-(5-fluoro-2-oxo-1,2-dihydro-pyridin-3-yl)-2-methoxy-phenyl]-vinyl}-3-(3-hydroxy-3-methyl-butoxymethyl)-phenyl]-methanesulfonamide], in series [1] (setting [3]), half-maximal inhibition (IC50) required 0.004 µM.

In the case of `COc1c(C(=O)NC2CCCN(C)C2)cc(-c2ccc[nH]c2=O)cc1C(C)(C)C` (stereo not shown) [I-77], the 50% inhibitory concentration (IC50) in series [1] (setting [2]) amounted to 1.83 µM.

Regarding `COc1c(NC(=O)c2ccc(N)c(C)c2)cc(-c2ccc[nH]c2=O)cc1C(C)(C)C` [I-278], inhibition in series [1] (setting [2]) was half-maximal at 0.014 µM (IC50). Still for that read-out and setting: in the case of `CC(C)(C)c1cc(-c2ccc[nH]c2=O)cc(NC(=O)c2ccccc2)c1F` [I-60] it was 1.09 µM. In series [1] (setting [3]), `COCCOc1c(/C=C/c2ccc(NS(C)(=O)=O)cc2)cc(-c2ccc[nH]c2=O)cc1C(C)(C)C` [I-250] showed an IC50 of 0.023 µM.

`CC(C)(C)c1cc(CCc2ccc(NS(C)(=O)=O)nc2)c(C#N)c(-c2ccc[nH]c2=O)c1` [I-212, N-(5-{2-[5-tert-Butyl-2-cyano-3-(2-oxo-1,2-dihydro-pyridin-3-yl)-phenyl]-ethyl}-pyridin-2-yl)-methanesulfonamide] registered an IC50 in series [1] (setting [2]) of 0.009 µM.

With `COc1c(C(=O)NC2CCN(C)CC2)cc(-c2ccc[nH]c2=O)cc1C(C)(C)C` [I-91], the IC50 in series [1] (setting [2]) is 1.48 µM. As to `COc1c(/C=C/c2ccc(NS(C)(=O)=O)cc2)cc(-c2cc(Cl)c[nH]c2=O)cc1C1(C)COC1` [I-291], in series [1] (setting [3]), the IC50 stood at 0.002 µM. For `COc1c(/C=C/c2ccc(NS(C)(=O)=O)nn2)cc(-c2cc(F)c[nH]c2=O)cc1C(C)(C)C` [I-184], in series [1] (read-out: IC50 HCV NS5B RNA Polymerase Assay, values without asterisk, 20 nM NS5B570n-Con1 enzyme, 20 nM cIRES RNA template), the IC50 stood at 0.004 µM.

In turn, `COc1c(/C=C/c2ccc(NS(=O)(=O)CCCN3CCOCC3)cc2)cc(-c2cc(F)c[nH]c2=O)cc1C(C)(C)C` [I-231, 3-Morpholin-4-yl-propane-1-sulfonic acid (4-{(E)-2-[3-tert-butyl-5-(5-fluoro-2-oxo-1,2-dihydro-pyridin-3-yl)-2-methoxy-phenyl]-vinyl}-phenyl)-amide] yielded an IC50 in series [1] (setting [3]) of 0.004 µM. Molecule `COc1c(/C=C/c2ccc(NS(C)(=O)=O)cc2C(C)(C)O)cc(-c2ccc[nH]c2=O)cc1C(C)(C)C` [I-204, N-[4-{(E)-2-[3-tert-Butyl-2-methoxy-5-(2-oxo-1,2-dihydro-pyridin-3-yl)-phenyl]-vinyl}-3-(1-hydroxy-1-methyl-ethyl)-phenyl]-methanesulfonamide] returned an IC50 in series [1] (setting [3]) of 0.001 µM.

As for `COCc1cc(NS(C)(=O)=O)ccc1/C=C/c1cc(-c2ccc(OC)[nH]c2=O)cc(C(C)(C)C)c1OC` [I-209, N-(4-{(E)-2-[3-tert-Butyl-2-methoxy-5-(6-methoxy-2-oxo-1,2-dihydro-pyridin-3-yl)-phenyl]-vinyl}-3-methoxymethyl-phenyl)-methanesulfonamide], 0.001 µM corresponded to half-maximal inhibition in series [1] (setting [3]) (IC50). For `COc1c(C(C)(C)C)cc(-c2ccc[nH]c2=O)c(O)c1CCc1ccc(NS(C)(=O)=O)cc1` [I-218, N-(4-{2-[3-tert-Butyl-6-hydroxy-2-methoxy-5-(2-oxo-1,2-dihydro-pyridin-3-yl)-phenyl]-ethyl}-phenyl)-methanesulfonamide], the half-maximal inhibitory concentration (IC50) in series [1] (setting [2]) was 0.008 µM.

Regarding `CC(C)(C)c1cc(CCc2ccc(NS(C)(=O)=O)cc2C#N)c(O)c(-c2ccc[nH]c2=O)c1` [I-216, N-(4-{2-[5-tert-Butyl-2-hydroxy-3-(2-oxo-1,2-dihydro-pyridin-3-yl)-phenyl]ethyl}-3-cyano-phenyl)-methanesulfonamide], the IC50 in series [1] (setting [2]) was 0.005 µM.

As a reminder, the melting point is the temperature of the solid-liquid transition. The term IC50 denotes the concentration needed to halve the response being measured.
